Tested on: 782815-120-R-J1-PDC complex spheroid viability
Test: Anticancer human tumor 782815-120-R-J1-PDC patient-derived colon adenocarcinoma cell line growth inhibition [RAS]
Settings: for IC50: curve of first compound; for viability, T/C: stronger effect = lower value
Outline: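 Multi-cell-type spheroids: tumor cells plus HUVEC endothelial cells and mesenchymal stem cells. RAS-pathway inhibitors were combined with targeted agents, each dosed in half-log steps down from clinical Cmax, or from 10 microM when Cmax was unknown.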
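Note: spheroids exposed to compounds for 7 days before reading.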
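Throughout, for viability, T/C: 100% = DMSO vehicle control viability.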

With `CC(=O)OC12COC1CC(O)C1(C)C(=O)C(O)C3=C(C)C(OC(=O)C(O)C(NC(=O)OC(C)(C)C)c4ccccc4)CC(O)(C(OC(=O)c4ccccc4)C21)C3(C)C` (configuration not stated) + C#Cc1c(F)ccc2cc(O)cc(-c3ncc4c(N5CC6CCC(C5)N6)nc(OCC56CCCN5CC(F)C6)nc4c3F)c12 the IC50 (second compound 0.0316 µM) was less than 31.6 nM, the IC50 (second compound 0.1 µM) was less than 31.6 nM and the IC50 (second compound 0.316 µM) was less than 31.6 nM. The IC50 (second compound 1 µM) was less than 31.6 nM, the IC50 (second compound 3.16 µM) was less than 31.6 nM and the IC50 (second compound 10 µM) was less than 31.6 nM. The viability, T/C (second compound 0.0316 µM, first compound 0.0316 µM) was 34.4%, the viability, T/C (second compound 0.0316 µM, first compound 0.1 µM) was 32.9% and the viability, T/C (second compound 0.0316 µM, first compound 0.316 µM) was 30.1%. It also gave a viability, T/C (second compound 0.0316 µM, first compound 1 µM) of 24.4%, a viability, T/C (second compound 0.0316 µM, first compound 3.16 µM) of 30.8% and a viability, T/C (second compound 0.0316 µM, first compound 10 µM) of 34.9%. It also gave a viability, T/C (second compound 0.1 µM, first compound 0.0316 µM) of 39.7%, a viability, T/C (second compound 0.1 µM, first compound 0.1 µM) of 34.5% and a viability, T/C (second compound 0.1 µM, first compound 0.316 µM) of 29.2%. It also gave a viability, T/C (second compound 0.1 µM, first compound 1 µM) of 21.6%, a viability, T/C (second compound 0.1 µM, first compound 3.16 µM) of 32.2% and a viability, T/C (second compound 0.1 µM, first compound 10 µM) of 31%. The viability, T/C (second compound 0.316 µM, first compound 0.0316 µM) was 38.8%, the viability, T/C (second compound 0.316 µM, first compound 0.1 µM) was 33.4% and the viability, T/C (second compound 0.316 µM, first compound 0.316 µM) was 25.9%. The viability, T/C (second compound 0.316 µM, first compound 1 µM) was 28.6%, the viability, T/C (second compound 0.316 µM, first compound 3.16 µM) was 31.9% and the viability, T/C (second compound 0.316 µM, first compound 10 µM) was 29.5%. For the same compound, the viability, T/C (second compound 1 µM, first compound 0.0316 µM) was 36.5%, the viability, T/C (second compound 1 µM, first compound 0.1 µM) was 32.3% and the viability, T/C (second compound 1 µM, first compound 0.316 µM) was 30.5%. For the same compound, the viability, T/C (second compound 1 µM, first compound 1 µM) was 27.2%, the viability, T/C (second compound 1 µM, first compound 3.16 µM) was 33.7% and the viability, T/C (second compound 1 µM, first compound 10 µM) was 33.4%. The viability, T/C (second compound 3.16 µM, first compound 0.0316 µM) was 35.4%, the viability, T/C (second compound 3.16 µM, first compound 0.1 µM) was 34.4% and the viability, T/C (second compound 3.16 µM, first compound 0.316 µM) was 35.5%. It also gave a viability, T/C (second compound 3.16 µM, first compound 1 µM) of 27.5%, a viability, T/C (second compound 3.16 µM, first compound 3.16 µM) of 28.3% and a viability, T/C (second compound 3.16 µM, first compound 10 µM) of 34.2%. For the same compound, the viability, T/C (second compound 10 µM, first compound 0.0316 µM) was 35.7%, the viability, T/C (second compound 10 µM, first compound 0.1 µM) was 29.2% and the viability, T/C (second compound 10 µM, first compound 0.316 µM) was 26.8%. The viability, T/C (second compound 10 µM, first compound 1 µM) was 36%, the viability, T/C (second compound 10 µM, first compound 3.16 µM) was 29.9% and the viability, T/C (second compound 10 µM, first compound 10 µM) was 32.8%.
